# Patent US7101900B2, “Benzyl amidoxime derivatives, intermediate products and method for their production and use as fungicides” (BASF Aktiengesellschaft, priority 1999, dated 2006)
# Columns and labels:
# [1] = tested on: powdery mildew of wheat (Erysiphe graminis forma specialis tritici); experiment: Activity against mildew of wheat (protective spray test on wheat seedlings); format: in vivo; conditions: wheat seedlings c.v. Kanzler, dusted with spores 24 hours after spray coating dried, visual, total leaf area, after 7 days, untreated 95
# Experimental: Activity Against Mildew of Wheat
# Leaves of wheat seedlings c.v. “Kanzler” which had been grown in pots were sprayed to run off point with an aqueous preparation of active compound which had been prepared from a stock solution comprising 10% of active compound, 63% of cyclohexanone and 27% of emulsifier, and, 24 hours after the spray coating had dried on, dusted with spores of powdery mildew of wheat (Erysiphe graminis forma specialis tritici). The test plants were then placed in a greenhouse at 20–24° C. and 60–90% relative atmospheric humidity. After 7 days, the extent of the mildew development was determined visually in percent infection of the total leaf area.
# [2] = tested on: cucumber mildew (Sphaerotheca fuliginea); experiment: Protective activity against cucumber mildew (spray test on cucumber seedlings); format: in vivo; conditions: cucumber seedlings c.v. Chinesische Schlange, inoculated 20 hours after spray coating dried, visual, total leaf area, after 20 days, untreated 90
# Experimental: Protective Activity Against Cucumber Mildew
# At the two-leaf stage, leaves of cucumber seedlings c.v. “Chinesische Schlange” which had been grown in pots were sprayed to run off point with an aqueous preparation of active compound which had been prepared from a stock solution comprising 10% of active compound, 63% of cyclohexanone and 27% of emulsifier. 20 hours after the spray coating had dried on, the plants were inoculated with an aqueous spore suspension of cucumber mildew (Sphaerotheca fuliginea). The plants were then cultivated in a greenhouse at 20–24° C. and 60–80% relative atmospheric humidity for 20 days. The extent of the mildew development was then determined visually in % infection of the total leaf area.
compound,measurement,setting,value
"O=C(Cc1ccccc1)NC(Cc1c(F)cccc1Cl)=NOCC1CC1 [No. 2, O-cyclopropylmethyl N-phenylacetyl-(2-chloro-6-fluorophenyl)-acetamidoxime]",% infection of the leaves after application of an aqueous preparation comprising 16 ppm of active compound,[1],3%
same,% infection of the leaves after application of an aqueous preparation comprising 63 ppm of active compound,[2],10%
"O=C(Cc1ccccc1)NC(Cc1c(Cl)cccc1Cl)=NOCC1CC1 [No. 1, O-cyclopropylmethyl N-phenylacetyl-(2,6-dichlorophenyl)-acetamidoxime]",% infection of the leaves after application of an aqueous preparation comprising 16 ppm of active compound,[1],3%
same,% infection of the leaves after application of an aqueous preparation comprising 63 ppm of active compound,[2],10%
